SMILES strings stand for the structures.

Data on 4 compounds can be found in patent US20100227876A1 (priority 2009, published 2010).

One assay deals with rats. The note with it: rat, in vivo; cited from earlier work.
For another assay, the system named is male Sprague-Dawley rats. The assay can be described thus: animal or person. Format: in vivo, rat. The note with it: sc.
The next assay deals with human. The note with it: cited from earlier work.

Take `Oc1ccc2c3c1O[C@H]1c4[nH]c5c(c4C[C@@]4(O)[C@@H](C2)N(CC2CC2)CC[C@]314)C[C@@]1(O)[C@H]2Cc3ccc(O)c4c3[C@@]1(CCN2CC1CC1)[C@H]5O4` [n-BNI, nor-binaltorphimine]: the “M.P.E. (maximal percent effect, antinociception)” value in the assay with rats is listed as 1.0%.

As usually defined, the ED50 is the dose at which the effect has come halfway, by size or by number of responders. Consider `CN1CC[C@]23c4c5ccc(O)c4O[C@H]2C(=O)CC[C@@]3(O)[C@H]1C5` [oxymorphone], for which the ED50 in the assay on male Sprague-Dawley rats (Rattus norvegicus, read-out: ED50 (M.P.E.=50%)) was determined as 0.078 mg/kg. Also, the “peak effect, time post injection” value with male Sprague-Dawley rats (rat, in vivo) was 30 min. For `COC(=O)/C=C/C(=O)N[C@@H]1CC[C@@]2(O)[C@H]3Cc4ccc(O)c5c4[C@@]2(CCN3CC2CC2)[C@H]1O5` [β-FNA, beta-funaltrexamine], the “M.P.E. (maximal percent effect, antinociception)” value in the assay with rats was 1.0%. Take `Oc1ccc2c(c1)[C@@]13CCCC[C@@]1(O)[C@@H](C2)N(CC1CCC1)CC3` [butorphanol]: the effective human dose with human was 2 mg.
